Measured values from patent publication US20260116920A1, “HUMAN TRANSFERRIN RECEPTOR BINDING PEPTIDE” (PEPTIDREAM INC., priority 2021, published 2026).
Positions of bridges follow the written chain, without caps; N, C: chain ends. Non-standard residues stand in square brackets, D forms with d. Residues, ends and D or L forms follow the SMILES beside them. *: point of attachment. Trp(1-CH2COOH) = N[C@@H](Cc1cn(CC(=O)O)c2ccccc12)C(=O)O; Nle(6-morpholino) = N[C@@H](CCCCN1CCOCC1)C(=O)O; Phe(3-COOH) = N[C@@H](Cc1cccc(C(=O)O)c1)C(=O)O; Trp(7-aza) = N[C@@H](Cc1c[nH]c2ncccc12)C(=O)O; NH(CH2CH2O)8Me = COCCOCCOCCOCCOCCOCCOCCOCCN*; NMePhe(3-Cl) = CN[C@@H](Cc1cccc(Cl)c1)C(=O)O; 3Pal(6-NH2) = Nc1ccc(C[C@H](N)C(=O)O)cn1; NMeY = CN[C@@H](Cc1ccc(O)cc1)C(=O)O; 3Pal = N[C@@H](Cc1cccnc1)C(=O)O; 4Pal = N[C@@H](Cc1ccncc1)C(=O)O; PEG4 = NCCOCCOCCOCCOCCC(=O)O; Carboxymethyl = O=C(O)C*

biological target: T1, human transferrin receptor (hTfR) (Homo sapiens, UniProt P02786); experiment: Evaluation of molecular interaction between transferrin receptor (hTfR) and peptide using surface plasmon resonance (SPR); assay type: binding; conditions: peptide with linker, surface plasmon resonance; read-out: SPR (KD class for binding to hTfR)
T1 construct: made in house
T1 sequence (P02786 89-760 limits assumed): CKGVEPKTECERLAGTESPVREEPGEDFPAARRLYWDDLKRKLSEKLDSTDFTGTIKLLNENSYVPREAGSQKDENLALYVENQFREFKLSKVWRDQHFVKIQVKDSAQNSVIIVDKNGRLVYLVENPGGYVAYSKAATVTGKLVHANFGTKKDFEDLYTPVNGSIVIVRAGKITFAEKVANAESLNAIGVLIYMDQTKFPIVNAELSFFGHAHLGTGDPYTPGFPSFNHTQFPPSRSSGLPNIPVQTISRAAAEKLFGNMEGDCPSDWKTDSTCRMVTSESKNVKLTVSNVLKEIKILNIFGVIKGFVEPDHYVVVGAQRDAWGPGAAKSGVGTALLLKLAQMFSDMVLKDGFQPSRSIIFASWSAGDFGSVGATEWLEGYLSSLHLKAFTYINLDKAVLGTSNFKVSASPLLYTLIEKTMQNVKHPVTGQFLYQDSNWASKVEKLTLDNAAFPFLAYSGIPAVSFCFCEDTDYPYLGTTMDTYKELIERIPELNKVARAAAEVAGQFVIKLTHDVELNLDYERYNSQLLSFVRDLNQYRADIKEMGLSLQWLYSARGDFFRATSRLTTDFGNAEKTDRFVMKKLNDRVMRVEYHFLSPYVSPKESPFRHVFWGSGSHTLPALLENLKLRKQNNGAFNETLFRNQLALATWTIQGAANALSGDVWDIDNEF
Outline: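 Single-cycle SPR kinetics, KD by least-squares sensorgram fitting, with peptide series of 100, 50, 25, 10 and 5 nM. Running buffer: 10 mM HEPES pH 8.0, 150 mM NaCl, 0.05% Tween 20, 0.1% BSA, 1.0% DMSO. Surface: hTfR dimer covalently coupled (EDC/NHS) onto Ni-NTA chip.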

Kd, 1 to 100 nM:
CC[C@H](C)[C@@H]1NC(=O)[C@H](Cc2ccc(OCC(=O)O)cc2)NC(=O)[C@H](Cc2ccc(O)cc2)NC(=O)[C@H](CC(N)=O)NC(=O)[C@H](Cc2c[nH]c3ncccc23)NC(=O)[C@H](C(C)C)NC(=O)[C@H](Cc2cccc(Cl)c2)N(C)C(=O)[C@H](C(C)C)NC(=O)[C@H](C)NC(=O)CSC[C@@H](C(=O)NCCOCCOCCOCCOCCC(N)=O)NC(=O)[C@H](Cc2ccc(O)cc2)N(C)C(=O)[C@H](CCC(=O)NCCOCCOCCOCCOCCOCCOCCOCCOC)NC(=O)[C@H](CCCNC(=N)N)NC(=O)[C@H](CCC(=O)NCCOCCOCCOCCOCCOCCOCCOCCOC)NC(=O)[C@H]([C@@H](C)CC)NC1=O [compound 221] ({CH2CO}-AV[NMePhe(3-Cl)]V[Trp(7-aza)]NYY(Carboxymethyl)IIE(NH(CH2CH2O)8Me)RE(NH(CH2CH2O)8Me)[NMeY]C[PEG4]-NH2; thioether N-15), CC[C@H](C)[C@@H]1NC(=O)[C@H](Cc2ccc(OCC(=O)O)cc2)NC(=O)[C@H](Cc2ccc(O)cc2)NC(=O)[C@H](CC(N)=O)NC(=O)[C@H](Cc2cn(CC(=O)O)c3ccccc23)NC(=O)[C@H](C(C)C)NC(=O)[C@H](Cc2cccc(Cl)c2)N(C)C(=O)[C@H](C(C)C)NC(=O)[C@H](C)NC(=O)CSC[C@@H](C(=O)NCCOCCOCCOCCOCCC(N)=O)NC(=O)[C@H](Cc2ccc(O)cc2)N(C)C(=O)[C@H](Cc2cccc(C(=O)O)c2)NC(=O)[C@H](CCCCN2CCOCC2)NC(=O)[C@H](CCC(N)=O)NC(=O)[C@H]([C@@H](C)CC)NC1=O [compound 216] ({CH2CO}-AV[NMePhe(3-Cl)]V[Trp(1-CH2COOH)]NYY(Carboxymethyl)IIQ[Nle(6-morpholino)][Phe(3-COOH)][NMeY]C[PEG4]-NH2; thioether N-15)

same assay, conditions: surface plasmon resonance, binding to hTfR; KD class symbol; read-out: SPR (KD value)

Kd, 1 to 100 nM:
CC[C@H](C)[C@@H]1NC(=O)[C@H](Cc2ccc(O)cc2)NC(=O)[C@H](Cc2ccc(O)cc2)NC(=O)[C@H](CC(N)=O)NC(=O)[C@H](Cc2c[nH]c3ccccc23)N(C)C(=O)[C@H](C(C)C)NC(=O)[C@H](Cc2ccc(F)cc2)N(C)C(=O)[C@H](C(C)C)NC(=O)[C@H](C)NC(=O)CSC[C@@H](C(N)=O)NC(=O)[C@H](Cc2ccc(O)cc2)N(C)C(=O)[C@H](Cc2ccccc2)NC(=O)[C@H](CCCCNC(=O)CCOCCOCCOCCOC)NC(=O)[C@H](CCCNC(=N)N)N(C)C(=O)[C@H]([C@@H](C)CC)NC1=O [compound 7], CC[C@H](C)[C@@H]1NC(=O)[C@H](Cc2ccc(OCC(=O)O)cc2)NC(=O)[C@H](Cc2ccc(N)nc2)NC(=O)[C@H](CC(N)=O)NC(=O)[C@H](Cc2c[nH]c3ccccc23)NC(=O)[C@H](C(C)C)NC(=O)[C@H](Cc2cccc(Cl)c2)N(C)C(=O)[C@H](C(C)C)NC(=O)[C@H](C)NC(=O)CSC[C@@H](C(=O)NCCOCCOCCOCCOCCC(N)=O)NC(=O)[C@H](Cc2ccc(O)cc2)N(C)C(=O)[C@H](Cc2ccncc2)NC(=O)[C@H](CCCNC(=N)N)NC(=O)[C@H](CCCNC(=N)N)NC(=O)[C@H]([C@@H](C)CC)NC1=O [compound 92], CC[C@H](C)[C@@H]1NC(=O)[C@H](Cc2cccnc2)NC(=O)[C@H](Cc2ccc(N)nc2)NC(=O)[C@H](CC(N)=O)NC(=O)[C@H](Cc2c[nH]c3ccccc23)NC(=O)[C@H](C(C)C)NC(=O)[C@H](Cc2cccc(Cl)c2)N(C)C(=O)[C@H](C(C)C)NC(=O)[C@H](C)NC(=O)CSC[C@@H](C(=O)NCCOCCOCCOCCOCCC(N)=O)NC(=O)[C@H](Cc2ccc(O)cc2)N(C)C(=O)[C@H](Cc2ccncc2)NC(=O)[C@H](CCCNC(=N)N)NC(=O)[C@H](CCCNC(=N)N)NC(=O)[C@H]([C@@H](C)CC)NC1=O [compound 52] ({CH2CO}-AV[NMePhe(3-Cl)]VWN[3Pal(6-NH2)][3Pal]IIRR[4Pal][NMeY]C[PEG4]-NH2; thioether N-15), CC[C@H](C)[C@@H]1NC(=O)[C@H](Cc2cccnc2)NC(=O)[C@H](Cc2ccc(O)cc2)NC(=O)[C@H](CC(N)=O)NC(=O)[C@H](Cc2cn(CC(=O)O)c3ccccc23)NC(=O)[C@H](C(C)C)NC(=O)[C@H](Cc2cccc(Cl)c2)N(C)C(=O)[C@H](C(C)C)NC(=O)[C@H](C)NC(=O)CSC[C@@H](C(=O)NCCOCCOCCOCCOCCC(N)=O)NC(=O)[C@H](Cc2ccc(O)cc2)N(C)C(=O)[C@H](Cc2ccccc2)NC(=O)[C@H](CCC(=O)NCCOCCOCCOCCOCCOCCOCCOCCOC)NC(=O)[C@H](CCCNC(=N)N)NC(=O)[C@H]([C@@H](C)CC)NC1=O [compound 73] ({CH2CO}-AV[NMePhe(3-Cl)]V[Trp(1-CH2COOH)]NY[3Pal]IIRE(NH(CH2CH2O)8Me)F[NMeY]C[PEG4]-NH2; thioether N-15), CC[C@H](C)[C@@H]1NC(=O)[C@H](Cc2cccnc2)NC(=O)[C@H](Cc2ccc(O)cc2)NC(=O)[C@H](CC(N)=O)NC(=O)[C@H](Cc2cn(CC(=O)O)c3ccccc23)NC(=O)[C@H](C(C)C)NC(=O)[C@H](Cc2cccc(Cl)c2)N(C)C(=O)[C@H](C(C)C)NC(=O)[C@H](C)NC(=O)CSC[C@@H](C(=O)NCCOCCOCCOCCOCCC(N)=O)NC(=O)[C@H](Cc2ccc(O)cc2)N(C)C(=O)[C@H](Cc2cccc(C(=O)O)c2)NC(=O)[C@H](CCC(=O)NCCOCCOCCOCCOCCOCCOCCOCCOC)NC(=O)[C@H](CCCNC(=N)N)NC(=O)[C@H]([C@@H](C)CC)NC1=O [compound 84] ({CH2CO}-AV[NMePhe(3-Cl)]V[Trp(1-CH2COOH)]NY[3Pal]IIRE(NH(CH2CH2O)8Me)[Phe(3-COOH)][NMeY]C[PEG4]-NH2; thioether N-15)
